Results as given in ChEMBL document CHEMBL1133868, “Synthesis of P(1)-Citronellyl-P(2)-alpha-D-pyranosyl pyrophosphates as potential substrates for the E. coli undecaprenyl-pyrophosphoryl-N-acetylglucoseaminyl transferase MurG” (Bioorg Med Chem Lett, 2001).
Activity calls are given as the source filed them. The rule behind the calls is not given here.

Tested on: Bacillus subtilis
Test: Tested for antimicrobial activity against Bacillus Subtilis; Not active
Assay type: functional, organism-based

Structure (SMILES)	Activity
CC(C)=CCC[C@@H](C)CCOP(=O)(O)OP(=O)(O)O[C@H]1O[C@@H](CO)[C@@H](O)[C@H](O)[C@@H]1O	inactive
CC(=O)NC1C(OP(=O)(O)OP(=O)(O)OCC[C@H](C)CCC=C(C)C)OC(CO)C(O)C1O[C@H](C)C(=O)O (some centres not stated)	inactive
